# From US6444850B1, “Fungicidial compounds having a fluorovinyloxphyenyl moiety and process for the preparation thereof” (priority 1997, dated 2002)
# Experiments:
# [1] = tested on: Pyricularia oryzae Carvara KA301; format: in vivo; settings: for C. V. (%) RCB: 50 ppm, control value, rice blast; for C. V. (%) Fungicidal Activities against RCB at 10 ppm / C. V. (%) Fungicidal Activities against RCB at 10 ppm (TABLE 6): sprayed on Nakdong rice plant, control value from lesion area
# Phytophthora infestans = format: in vivo; settings: 50 ppm; control value, tomato late blight
# Rhizoctonia solani AG-1 = experiment: Fungicidal activity against rice sheath blight (RSB) disease; settings: 50 ppm, control value
# Experimental: 50 ml of the resulting solution was sprayed on leaves of a host plant. The plant was kept at room temperature for 24 hours to let the solvent evaporate, and then, a pathogenic fungus was inoculated thereonto. The plant was held in a humidity chamber for 24 hours, transferred to an plant growth room kept at 20 to 27° C. and a relative humidity of 60 to 80% and kept to induce disease. Subsequently, the lesion area(L.A.) attacked by the pathogenic fungus was measured according to a method of Cho(Cho, K. Y., Search Report by Korea Research Institute of Chemical Technology (1989))”. This procedure was repeated twice for each test. 10% Acetone solution containing 250 ppm of Tween-20 was used as a control.
# The fungicidal activity of the compound of the present invention is repressed by a control value (C.V.) calculated as; [formula]
# Rhizoctonia solani AG-1 was cultured on a PDA medium(potato 200 g, dextrose 20 g, agar 20 g and distilled water 1 l) for 3 days and the agar disc (diameter 0.6 cm) was inoculated and cultured on sterilized wheat bran medium in a 1 l bottle at 26 to 28° C. for 7 days. A mycelial mass was ground using a homogenizer, inoculated uniformly on soil of a pot wherein a Nakdong rice plant having 2 or 3 leaves and an height of 5 cm grew, and kept in humidity polyvinyl chamber for 5 days to induce RSB. L.A. on a leaf sheath was measured to calculate an C.V.
# Botrytis cinerae = experiment: Fungicidal activity against cucumber gray mold rot (CGM) disease; format: in vivo; settings: 50 ppm, control value
# Experimental: Botrytis cinerae, which was isolated from cucumber infected thereby, was inoculated on a PDA agar medium and cultured under a 12L/12D cycle at 25° C. for 15 days to form spore. The spores were scraped, filtered through a gauze and then suspended in potato dextrose liquid medium at a concentration of 1×10^6 spore/ml. The spore suspension was sprayed on a cucumber plant having one leaf. The cucumber plant was held in a humidified room at 20° C. for 3 days. L.A. on a leaf was measured to calculate an C.V.
# Puccinia recondita = experiment: Fungicidal activity against wheat leaf rust (WLR) disease; format: in vivo; settings: for C. V. (%), Fungicidal Activities against WLB at 10 ppm: Table 8 (Test Example 5); for C. V. (%) WLR: 50 ppm, control value, wheat leaf rust
# Erysiphae graminis = experiment: Fungicidal activity against barley powdery mildew (BPM) disease; format: in vivo; settings: for C. V. (%), Fungicidal activities against TLB at 10 ppm: Table 9 (Test Example 6); for C. V. (%) BPM: 50 ppm, control value, barley powdery mildew
# Experimental: Erysiphae graminis was subcultured on a wheat plant in a laboratory. 15 g of barley seeds was sowed in a pot (diameter 6.5 cm) and cultured in a greenhouse for 7 days to obtain a barley plant having only a primary leaf. The barley plant was inoculated with spores by shaking thereover another plant infected by BPM. The inoculated barley plant was cultured in an incubator maintained at a temperature of 22 to 24° C. and a relative humidity of 50% for 7 days to induce BPM. L.A. on the leaf was measured to calculate an C.V.
SMILES,C. V. (%) RCB [1] [%],C. V. (%) TLB (Phytophthora infestans) [%],C. V. (%) RSB (Rhizoctonia solani AG-1) [%],C. V. (%) CGM (Botrytis cinerae) [%],"C. V. (%), Fungicidal Activities against WLB at 10 ppm (Puccinia recondita) [%]",C. V. (%) WLR (Puccinia recondita) [%],"C. V. (%), Fungicidal activities against TLB at 10 ppm (Erysiphae graminis) [%]",C. V. (%) BPM (Erysiphae graminis) [%],C. V. (%) Fungicidal Activities against RCB at 10 ppm [1] [%],C. V. (%) Fungicidal Activities against RCB at 10 ppm (TABLE 6) [1] [%]
CCCCCCC(=C(F)Oc1cccc(OCc2ccccc2C(=COC)C(=O)OC)c1)C(F)(F)F [Compound 106],0,0,45,0,91,98,100,100,–,–
CNC(=O)/C(=N/OC)c1ccccc1COc1cccc(OC(F)=C(c2ccc(C)c(C)c2)C(F)(F)F)c1 [Compound 66],98,18,40,0,100,100,100,100,100,100
COC=C(C(=O)OC)c1ccccc1COc1cccc(OC(F)=C(c2ccc(F)cc2)C(F)(F)F)c1 [Compound 96],90,62,67,33,97,100,100,100,95,95
CON=C(C(=O)OC)c1ccccc1COc1cccc(OC(F)=C(c2cccc(OC)c2)C(F)(F)F)c1 [Compound 73],93,60,92,9,96,98,88,93,–,–
COC=C(C(=O)OC)c1ccccc1COc1cccc(OC(F)=Cc2ccc(OC)cc2)c1 [Compound 29],93,56,90,28,99,100,90,99,92,92
CNC(=O)C(=COC)c1ccccc1COc1cccc(OC(F)=C(c2cccc(F)c2)C(F)(F)F)c1 [Compound 93],0,0,5,0,–,73,–,0,–,–
COC=C(C(=O)OC)c1ccccc1COc1cccc(OC(F)=C(c2cccc(F)c2)C(F)(F)F)c1 [Compound 92],93,81,55,16,100,100,99,100,–,–
CON=C(C(=O)OC)c1ccccc1COc1cccc(OC(F)=Cc2cc(C)c(C)cc2C)c1 [Compound 23],88,10,90,20,91,93,91,100,–,–
CON=C(C(=O)OC)c1ccccc1COc1cccc(OC(F)=Cc2ccc(C)cc2)c1 [Compound 12],100,84,80,27,97,93,96,94,–,–
CCOc1ccc(C(=C(F)Oc2cccc(OCc3ccccc3C(=COC)C(=O)OC)c2)C(F)(F)F)cc1 [Compound 78],0,0,40,0,97,98,100,100,–,–
COC(=O)C(=CSC)c1ccccc1COc1cccc(OC(F)=Cc2cc(C)cc(C)c2)c1 [Compound 20],73,46,35,0,–,83,–,93,–,–
COC=C(C(=O)OC)c1ccccc1COc1cccc(OC(F)=C(c2cccc(C(F)(F)F)c2)C(F)(F)F)c1 [Compound 83],25,11,50,0,94,100,100,100,–,–
CON=C(C(=O)OC)c1ccccc1COc1cccc(OC(F)=Cc2ccccc2)c1 [Compound 3],100,70,70,15,–,93,–,41,–,–
CNC(=O)C(=NOC)c1ccccc1COc1cccc(OC(F)=C(c2ccccc2)C(F)(F)F)c1 [Compound 48],97,70,45,28,100,100,100,98,100,100
